Test results reported in patent publication US4254285A, “1-Hydroxymethyl-1-1-oxo prostane derivatives of the E and F series” (American Cyanamid Company, priority 1979, dated 1981).

Key:
[1] = system: platelet aggregation induced by adenosine diphosphate; experiment: Inhibition of platelet aggregation in vitro, adenosine diphosphate; assay type: cell-based; conditions: 0.025 mg/ml, human plasma
Text: (§1) It is well known that platelet aggregation inhibitors may be useful as anti-thrombotic drugs. Inhibition of platelet aggregation can be conveniently measured in vitro by monitoring changes in optical density and/or light transmission in platelet rich plasma upon addition of suitable aggregating agents such as adenosine diphosphate, epinephrine, thrombin or collagen. Alternatively, platelet aggregation can be measured in vitro using platelet rich plasma obtained at various time intervals from animals given inhibitors by an oral or parenteral route.
(§2) […] is incubated with modified Tyrode's solution in a proportion of 40-50% human protein rich plasma. The test compounds are added at varying concentrations and after 5 minutes incubation, an aggregating agent such as adenosine diphosphate or collagen is added. The change in optical density (light transmission) is monitored by eye and inhibition is recorded as a (-) or lack of inhibition is recorded as a (+). Test compounds are considered active if they inhibit adenosine diphosphate or collagen induced aggregation at a concentration of 0.025 mg/ml or less within 5-10 minutes.

[2] = system: platelet aggregation induced by collagen; experiment: Inhibition of platelet aggregation in vitro, collagen; assay type: cell-based; conditions: 0.025 mg/ml, human plasma
Text: as §1, §2

What does the source list for `CCCCCC(O)/C=C/C1CCC(=O)C1CCCCCCC(=O)CO` (centres unmarked)?
inhibition of platelet aggregation [1]: shows inhibition of platelet aggregation; inhibition of platelet aggregation [2]: shows inhibition of platelet aggregation
